Values quoted from earlier work, collected in article PMC4984525 (Cancer, 2011).

Test system: patients with resistant ovarian cancer
Conditions: preliminary results of a Phase 2 trial; cited from earlier work

Cc1ccc(C(=O)N(CCCN)[C@@H](c2nc3cc(Cl)ccc3c(=O)n2Cc2ccccc2)C(C)C)cc1 [ispinesib]
clinical activity: has clinical activity
